# Legend:
# Format in all cases: in vivo
# [1] = tested on: cat fleas [Ctenocephalides felis (Bouche)]; assay: Control of adult fleas in cats by means of pour-on application; settings: for action against adult fleas: pour-on on back of neck, 20 mg of active ingredient per kg body weight; for long-term action / long-term activity against adult fleas: evaluated up to day +63
# Experimental: Test protocol for each test compound: in order to determine the effectiveness of the test compounds against fully grown fleas, four groups each of two cats are used. Each cat is infested with 100 cat fleas [Ctenocephalides felis (Bouche)] and treated with 20 mg of active ingredient per kg body weight. The treatment is effected by applying the formulation to a locally limited area on the back of the cat's neck. While one group is infested with fleas but is treated only with a placebo, that is to say a formulation without active ingredient, and serves as control, another group is treated with nitenpyram as comparison substance; the two remaining groups receive the test compounds. Evaluation is made in each case by combing surviving fleas out of the animal's coat and comparing the number counted with the number of fleas in the control group and in the group treated with nitenpyram. The procedure in detail is as follows: each cat is infested with 100 fleas immediately after treatment on day 0. On day +1, each animal is combed and the number of surviving fleas is determined; the surviving fleas are then replaced on the same cat and after 24 hours the combing and evaluation are repeated. The fleas still surviving after those 24 hours are not returned to the cat. The described procedure is then repeated on days +3, +7, +9, +14, +21, +28, +35, +42, +49, +56 and +63 and in this way the effectiveness and duration of action are determined. The effectiveness is determined in accordance with the following formula: [formula]
# [2] = tested on: cat fleas [Ctenocephalides felis (Bouche)]; assay: Control of adult fleas in cats by means of subcutaneous injection; settings: for action against adult fleas: subcutaneous injection behind left shoulder blade
# Experimental: Test protocol for each test compound: in order to determine the effectiveness of the test compounds against fully grown fleas, four groups each of two cats from 1.5 to 4 years of age are used. Each cat is infested with 100 cat fleas [Ctenocephalides felis (Bouche)]. Two groups are treated with 20 mg of active ingredient per kg body weight. The treatment is effected by subcutaneous injection of a solution of the active ingredient behind the left shoulder blade. While one group is infested with fleas but is treated only with a placebo, that is to say a formulation without active ingredient, and serves as control, another group is treated with nitenpyram as comparison substance. Evaluation is made in each case by combing surviving fleas out of the animal's coat and comparing the number counted with the number of fleas in the control group and in the group treated with nitenpyram. The procedure in detail is as follows: each cat is infested with 100 fleas immediately after treatment on day 0. On day +1, each animal is combed and the number of surviving fleas is determined; the surviving fleas are then replaced on the same cat and after 24 hours the combing and evaluation are repeated. The fleas still surviving after those 24 hours are not returned to the cat. The described procedure is then repeated on days +3, +7, +9, +14, +21 and +28 and in this way the effectiveness and duration of action is determined. The effectiveness is determined using the same formula as in the preceding Example.
# [3] = tested on: dog fleas [Ctenocephalides canis]; assay: Control of adult fleas in dogs by means of pour-on application
# Description: In dogs the test proceeds in an entirely analogous manner. In order to investigate the total action and any side-effects after administration in the form of a pour-on formulation, compound No. 1.008 is selected and tested on 11 dogs. The test protocol and the results are given in Example 7.
# Test protocol for each test compound: in order to determine the effectiveness of the test compounds against fully grown fleas, three groups each of three dogs (1 male and 2 female beagles) are used; one group consists of two dogs (2 male beagles) and serves as control group. The entire test group consists of 11 beagles between 1 and 3.5 years of age. Each dog is infested with a total of 100 dog fleas [Ctenocephalides canis], 50 male and 50 female. Group 1 is treated with 2 mg, group 2 with 10 mg and group 3 with 20 mg of active ingredient per kg body weight. The treatment is effected by applying the pour-on formulation to a locally limited area on the back of the dog's neck. The fourth group is the control group. The latter is infested with fleas but is treated only with a placebo, that is to say a formulation without active ingredient, and serves for control purposes. Evaluation is made in each case by combing surviving fleas out of the animal's coat and comparing the number counted with the number of fleas in the control group. The procedure in detail is as follows: after treatment with the test formulation (day 0) each dog is infested on each of the subsequent days +1, +7, +14, +23, +28, +35, +49, +56, +63, +70, +77, +84 and +98 with 100 fleas. On the following day, each animal is combed and the number of surviving fleas is determined. The surviving fleas are then replaced on the same dog and after 24 hours the combing and evaluation are repeated. The fleas still surviving after those further 24 hours (2nd day after infestation with 100 fleas) are not returned to the dog. Then on days +3, +7, +9, +14, +21, +28, +35, +42 etc. the described procedure is repeated and in this way the effectiveness and the duration of action are determined. The effectiveness is determined using the formula given in Example 6.
Compound,action against adult fleas [1],"action against adult fleas ([2]; cats, 20 mg/kg body weight)",further results
CCCCCCCCCCCCCCCC(=O)OCOC(=O)N(C)C(=C[N+](=O)[O-])N(CC)Cc1ccc(Cl)nc1 [Compound 1.014],Very good action,Very good action,
CCN(Cc1ccc(Cl)nc1)C(=C[N+](=O)[O-])N(C)C(=O)OCOC(=O)c1ccccc1 [Compound 1.018],Very good action,Very good action,
"CCN(Cc1ccc(Cl)nc1)/C(=C\[N+](=O)[O-])NC [nitenpyram, (E)-N-(6-chloro-3-pyridylmethyl)-N-ethyl-N-methyl-2-nitrovinylidenediamine, reference compound]",,,"period of full action (100% effectiveness) ([1]; pour-on, 20 mg/kg body weight): ≤ 3 weeks; period of full action ([2]; sc, 20 mg/kg): 2 days"
CCN(Cc1ccc(Cl)nc1)C(=C[N+](=O)[O-])N(C)C(=O)OCOC(=O)C(C)(C)CC [Compound 1.056],,,"long-term action in a further, fully analogous test ([1]; pour-on): long-term action equally as excellent"
CCCCCCCCCCCCCCCCCC(=O)OCOC(=O)N(C)C(=C[N+](=O)[O-])N(CC)Cc1ccc(Cl)nc1 [Compound 1.015],Very good action,Very good action,
CCCCCCCCCCCC(=O)OCOC(=O)N(C)C(=C[N+](=O)[O-])N(CC)Cc1ccc(Cl)nc1 [Compound 1.012],Very good action,Very good action,"action (effectiveness) to which it gradually declines after 7 weeks ([1]; pour-on, 20 mg/kg body weight): 26%; long-term action / long-term activity against adult fleas ([1]; pour-on, 20 mg/kg body weight): especially high level of long-term activity; period of full action ([2]; cats, subcutaneous injection, 20 mg/kg body weight): at least 20 days; long-term action / long-term activity against adult fleas ([2]; cats, subcutaneous injection, 20 mg/kg body weight, evaluated up to day +28): especially high level of long-term activity"
CCCCCCCCCCC(=O)OCOC(=O)N(C)C(=C[N+](=O)[O-])N(CC)Cc1ccc(Cl)nc1 [Compound 1.058],,,"long-term action in a further, fully analogous test ([1]; pour-on): long-term action equally as excellent"
CCCCCC(=O)OCOC(=O)N(C)C(=C[N+](=O)[O-])N(CC)Cc1ccc(Cl)nc1 [Compound 1.019],,,"long-term action in a further, fully analogous test ([1]; pour-on): long-term action equally as excellent"
CCCCCCC(=O)OCOC(=O)N(C)C(=C[N+](=O)[O-])N(CC)Cc1ccc(Cl)nc1 [Compound 1.057],,,"long-term action in a further, fully analogous test ([1]; pour-on): long-term action equally as excellent"
CCN(Cc1ccc(Cl)nc1)C(=C[N+](=O)[O-])N(C)C(=O)OCOC(C)=O [Compound 1.001],Very good action,Very good action,
CCN(Cc1ccc(Cl)nc1)C(=C[N+](=O)[O-])N(C)C(=O)OCOC(=O)c1ccc(C(C)(C)C)cc1 [Compound 1.022],Very good action,Very good action,
CCCCCCCCCCCCCC(=O)OCOC(=O)N(C)C(=C[N+](=O)[O-])N(CC)Cc1ccc(Cl)nc1 [Compound 1.013],Very good action,Very good action,
CCCCCCCC(=O)OCOC(=O)N(C)C(=C[N+](=O)[O-])N(CC)Cc1ccc(Cl)nc1 [Compound 1.011],Very good action,Very good action,"action (effectiveness) to which it gradually declines after 7 weeks ([1]; pour-on, 20 mg/kg body weight): 26%; long-term action / long-term activity against adult fleas ([1]; pour-on, 20 mg/kg body weight): especially high level of long-term activity"
CCCCC(=O)OCOC(=O)N(C)C(=C[N+](=O)[O-])N(CC)Cc1ccc(Cl)nc1 [Compound 1.008],Very good action,Very good action,"action (effectiveness) to which it gradually declines after 7 weeks ([1]; pour-on, 20 mg/kg body weight): 26%; long-term action / long-term activity against adult fleas ([1]; pour-on, 20 mg/kg body weight): especially high level of long-term activity; action (effectiveness) against fleas ([3]; dogs (beagles), pour-on, groups 2, 10 and 20 mg/kg (group not stated), 79 days after application): 100%; effectiveness against fleas ([3]; dogs (beagles), pour-on, groups 2, 10 and 20 mg/kg (group not stated), day 86): 98.6%; effectiveness against fleas ([3]; dogs (beagles), pour-on, groups 2, 10 and 20 mg/kg (group not stated), day 98): 92.3%; skin irritation or other undesirable side-effects ([3]; dogs of the three test groups, pour-on 2, 10 and 20 mg/kg body weight): no skin irritation or any other undesirable side-effects"
